Source: ChEMBL document CHEMBL3885861, “Open TG-GATES”

Species on record: Rattus norvegicus
Assay: Open TG-GATES - Regimen: Daily Repeat
Assay type: toxicity, organism-based, Sprague-Dawley
Set-up: regimen Daily Repeat, gender Male, age 6 weeks
Details: in vivo, po, route gavage; for Eos / Fbg / Hb / Ht / Lym / MCHC / MCV / Mono / Neu / PT / Plat / RBC / Ret / WBC / Bas: tissue Blood; for ALP / AST / BUN / CRE / Ca / Cl / DBIL / GLC / IP / K / LDH / Na / PL / RALB / TBIL / TC / TG / TP / gamma-GTP / ALT: tissue Plasma
[1] = 300 mg/kg, 72 h, dose level Middle, time 3 day
[2] = 300 mg/kg, […], dose level Middle, time 7 day
[3] = 300 mg/kg, […], dose level Middle, time 14 day
[4] = 300 mg/kg, […], dose level Middle, time 28 day
[5] = 1000 mg/kg, 72 h, dose level High, time 3 day
[6] = 1000 mg/kg, […], dose level High, time 7 day
[7] = 1000 mg/kg, […], dose level High, time 14 day
[8] = 1000 mg/kg, […], dose level High, time 28 day

O=C(O)c1cccnc1 [NIACIN]
Eos [1]: 1%
Fbg [1]: 314.2 mg/dL
Hb [1]: 13.3 g/dL
Ht [1]: 40.2%
Lym [1]: 75.2%
MCHC [1]: 33%
MCV [1]: 63.4 fL
Mono [1]: 3.6%
Neu [1]: 19%
PT [1]: 16 s
Plat [1]: 132.1 x10_4/uL
RBC [1]: 635.6 x10_4/ul
Ret [1]: 7.2%
WBC [1]: 106.7 x10_2/uL
ALP [1]: 1606.8 IU/L
AST [1]: 74.6 IU/L
BUN [1]: 16.4 mg/dL
CRE [1]: 0.2 mg/dL
Ca [1]: 10.8 mg/dL
Cl [1]: 104 meq/L
DBIL [1]: 0 mg/dL
GLC [1]: 191.6 mg/dL
IP [1]: 8.2 mg/dL
K [1]: 4.1 meq/L
LDH [1]: 165.8 IU/L
Na [1]: 139.6 meq/L
PL [1]: 152.8 mg/dL
RALB [1]: 3 g/dL
TBIL [1]: 0 mg/dL
TC [1]: 73.2 mg/dL
TG [1]: 136.2 mg/dL
TP [1]: 5.6 g/dL
gamma-GTP [1]: 1.2 IU/L
TERMINAL_BW [2]: 273.2 g
TERMINAL_BW [3]: 321.5 g
TERMINAL_BW [4]: 396.3 g
Bas [2]: 0%
Eos [2]: 1%
Fbg [2]: 325.8 mg/dL
Hb [2]: 13.8 g/dL
Ht [2]: 41.4%
Lym [2]: 75%
MCHC [2]: 33.4%
MCV [2]: 63.5 fL
Mono [2]: 3.4%
Neu [2]: 19.2%
PT [2]: 15.6 s
Plat [2]: 112.8 x10_4/uL
RBC [2]: 652.2 x10_4/ul
Ret [2]: 6%
WBC [2]: 104.1 x10_2/uL
Bas [3]: 0%
Eos [3]: 0.6%
Fbg [3]: 325.2 mg/dL
Ht [3]: 42.2%
Lym [3]: 72.6%
MCHC [3]: 33.7%
MCV [3]: 59.8 fL
Mono [3]: 3.4%
Neu [3]: 21.8%
PT [3]: 15.5 s
Plat [3]: 109.4 x10_4/uL
RBC [3]: 705.8 x10_4/ul
Ret [3]: 4.7%
WBC [3]: 119.8 x10_2/uL
Bas [4]: 0%
Eos [4]: 1.2%
Fbg [4]: 336.6 mg/dL
Hb [4]: 15 g/dL
Ht [4]: 42.6%
Lym [4]: 74.8%
MCHC [4]: 35.3%
MCV [4]: 56 fL
Mono [4]: 2.8%
PT [4]: 16.1 s
Plat [4]: 100.4 x10_4/uL
RBC [4]: 761.2 x10_4/ul
Ret [4]: 2.6%
WBC [4]: 105.7 x10_2/uL
ALP [2]: 1661 IU/L
ALT [2]: 47.8 IU/L
AST [2]: 76 IU/L
BUN [2]: 17.6 mg/dL
CRE [2]: 0.1 mg/dL
Ca [2]: 10.7 mg/dL
Cl [2]: 105 meq/L
DBIL [2]: 0 mg/dL
GLC [2]: 189 mg/dL
IP [2]: 7.4 mg/dL
K [2]: 4.3 meq/L
LDH [2]: 138.4 IU/L
Na [2]: 139.8 meq/L
PL [2]: 161.8 mg/dL
RALB [2]: 2.9 g/dL
TBIL [2]: 0 mg/dL
TC [2]: 79.6 mg/dL
TG [2]: 135.8 mg/dL
TP [2]: 5.5 g/dL
gamma-GTP [2]: 1.4 IU/L
ALP [3]: 1495.2 IU/L
ALT [3]: 39.6 IU/L
AST [3]: 68.8 IU/L
CRE [3]: 0.2 mg/dL
Ca [3]: 10.7 mg/dL
Cl [3]: 104.4 meq/L
DBIL [3]: 0 mg/dL
GLC [3]: 201 mg/dL
IP [3]: 6.8 mg/dL
K [3]: 3.9 meq/L
LDH [3]: 166.4 IU/L
Na [3]: 137.6 meq/L
PL [3]: 162.6 mg/dL
RALB [3]: 3.1 g/dL
TBIL [3]: 0.006 mg/dL
TC [3]: 77.6 mg/dL
TG [3]: 156 mg/dL
TP [3]: 5.8 g/dL
gamma-GTP [3]: 1.8 IU/L
ALP [4]: 1059.8 IU/L
ALT [4]: 41.4 IU/L
AST [4]: 71.2 IU/L
BUN [4]: 16 mg/dL
CRE [4]: 0.2 mg/dL
Ca [4]: 10.4 mg/dL
Cl [4]: 107 meq/L
DBIL [4]: 0 mg/dL
GLC [4]: 193.6 mg/dL
IP [4]: 6.3 mg/dL
K [4]: 4.4 meq/L
LDH [4]: 149.2 IU/L
Na [4]: 143 meq/L
PL [4]: 140.4 mg/dL
RALB [4]: 3 g/dL
TBIL [4]: 0.008 mg/dL
TC [4]: 69.4 mg/dL
TG [4]: 126.6 mg/dL
TP [4]: 6.1 g/dL
gamma-GTP [4]: 2.8 IU/L
TERMINAL_BW [5]: 239.5 g
Bas [5]: 0%
Eos [5]: 0.8%
Fbg [5]: 319.4 mg/dL
Hb [5]: 13.5 g/dL
Ht [5]: 40.1%
Lym [5]: 73.6%
MCHC [5]: 33.5%
MCV [5]: 62.3 fL
Mono [5]: 3.8%
Plat [5]: 119.3 x10_4/uL
RBC [5]: 645 x10_4/ul
Ret [5]: 5.7%
WBC [5]: 116 x10_2/uL
ALP [5]: 1534.6 IU/L
ALT [5]: 48.8 IU/L
AST [5]: 77.8 IU/L
BUN [5]: 17.2 mg/dL
CRE [5]: 0.2 mg/dL
Ca [5]: 10.9 mg/dL
Cl [5]: 104.2 meq/L
DBIL [5]: 0 mg/dL
GLC [5]: 187.6 mg/dL
IP [5]: 8.5 mg/dL
K [5]: 4.1 meq/L
LDH [5]: 176.6 IU/L
Na [5]: 139.4 meq/L
PL [5]: 148.8 mg/dL
RALB [5]: 3.1 g/dL
TBIL [5]: 0 mg/dL
TC [5]: 73.4 mg/dL
TG [5]: 97.6 mg/dL
TP [5]: 5.6 g/dL
gamma-GTP [5]: 1.2 IU/L
TERMINAL_BW [6]: 270 g
TERMINAL_BW [7]: 315.4 g
TERMINAL_BW [8]: 425.7 g
Bas [6]: 0%
Eos [6]: 0.8%
Fbg [6]: 325.4 mg/dL
Hb [6]: 13.6 g/dL
Ht [6]: 40.6%
Lym [6]: 77.2%
MCHC [6]: 33.5%
MCV [6]: 61.6 fL
Mono [6]: 3.4%
Neu [6]: 16.8%
PT [6]: 16 s
Plat [6]: 107.2 x10_4/uL
RBC [6]: 659.8 x10_4/ul
Ret [6]: 6.7%
WBC [6]: 127.7 x10_2/uL
Bas [7]: 0%
Eos [7]: 0.6%
Fbg [7]: 295.4 mg/dL
Hb [7]: 13.9 g/dL
Ht [7]: 41.5%
Lym [7]: 75.2%
MCHC [7]: 33.6%
Mono [7]: 2.4%
Neu [7]: 19.8%
PT [7]: 15.2 s
Plat [7]: 114.8 x10_4/uL
RBC [7]: 684.2 x10_4/ul
Ret [7]: 4.6%
WBC [7]: 131.3 x10_2/uL
Bas [8]: 0%
Eos [8]: 1%
Fbg [8]: 310.8 mg/dL
Hb [8]: 14.8 g/dL
Ht [8]: 42.1%
Lym [8]: 75.6%
MCHC [8]: 35.2%
MCV [8]: 56.4 fL
Mono [8]: 3.6%
Neu [8]: 18.2%
PT [8]: 15.8 s
Plat [8]: 88.1 x10_4/uL
RBC [8]: 747.2 x10_4/ul
Ret [8]: 2.7%
WBC [8]: 127.6 x10_2/uL
ALP [6]: 1693.6 IU/L
ALT [6]: 45.6 IU/L
AST [6]: 77.6 IU/L
BUN [6]: 15.8 mg/dL
CRE [6]: 0.2 mg/dL
Ca [6]: 10.6 mg/dL
Cl [6]: 104.8 meq/L
DBIL [6]: 0 mg/dL
GLC [6]: 196.6 mg/dL
IP [6]: 7.5 mg/dL
K [6]: 4.5 meq/L
LDH [6]: 137.2 IU/L
Na [6]: 139 meq/L
PL [6]: 142.4 mg/dL
RALB [6]: 3 g/dL
TBIL [6]: 0.004 mg/dL
TC [6]: 69.2 mg/dL
TG [6]: 107 mg/dL
TP [6]: 5.6 g/dL
gamma-GTP [6]: 1.8 IU/L
ALP [7]: 1458 IU/L
ALT [7]: 44.8 IU/L
AST [7]: 86.8 IU/L
BUN [7]: 17.2 mg/dL
CRE [7]: 0.2 mg/dL
Ca [7]: 10.5 mg/dL
Cl [7]: 105.2 meq/L
DBIL [7]: 0 mg/dL
GLC [7]: 195.6 mg/dL
IP [7]: 7 mg/dL
K [7]: 4.1 meq/L
LDH [7]: 140.8 IU/L
Na [7]: 138.8 meq/L
PL [7]: 150.8 mg/dL
RALB [7]: 3.1 g/dL
TBIL [7]: 0.012 mg/dL
TC [7]: 67.2 mg/dL
TG [7]: 163.6 mg/dL
TP [7]: 5.7 g/dL
gamma-GTP [7]: 1.8 IU/L
ALP [8]: 1046.8 IU/L
ALT [8]: 47 IU/L
AST [8]: 80.8 IU/L
BUN [8]: 17.8 mg/dL
CRE [8]: 0.2 mg/dL
Ca [8]: 10.5 mg/dL
Cl [8]: 104 meq/L
DBIL [8]: 0 mg/dL
GLC [8]: 196.6 mg/dL
IP [8]: 7.1 mg/dL
K [8]: 4.2 meq/L
LDH [8]: 157.4 IU/L
Na [8]: 143.4 meq/L
PL [8]: 152 mg/dL
RALB [8]: 3 g/dL
TBIL [8]: 0.01 mg/dL
TC [8]: 68.4 mg/dL
TG [8]: 184 mg/dL
TP [8]: 5.8 g/dL
gamma-GTP [8]: 2.4 IU/L
